Results on seven molecules are retold here after article PMC8400542, “Anti-Inflammatory, Antipyretic, and Analgesic Properties of Potamogeton perfoliatus Extract: In Vitro and In Vivo Study” (Molecules, 2021).

The test system of assay [1] is heat-induced nociceptive pain in mice. Nature of the assay: Hot plate test (central antinociception). The note with it: 10 mg/kg.
Protocol: To investigate the possible central analgesic activity of the studied extract, the hot plate test was performed according to Sobeh et al. [3]. […] One hour later, each individual mouse was placed on a hot plate preheated at 55 ± 1 °C and observed for any response to the heat-induced nociceptive pain (licking the fore and hind paws, hind paw lifting, or jumping). […] The overall antinociceptive activity of the extract was estimated by calculating the area under the curve (AUC) for the latency responses at the stated time points using GraphPad Prism.
(B) Hot plate response latency (s) assay. (C) AUC of response latency shown in panel (B).
In assay [2] the test system is Brewer's yeast-induced pyrexia in mice. Nature of the assay: Brewer's yeast-induced pyrexia. The assay is classed as in vivo, mouse. Particulars: 150 mg/kg. Here is the method:
Pyrexia in mice was induced as previously reported by Liu et al. with minor modifications. The animals’ initial rectum temperature was determined using a lubricated digital thermometer. Suspension of Brewer’s yeast was prepared in normal saline (30%) and injected subcutaneously behind the neck of the animal (1 mL/100 g). After 18 h, rectal temperatures of the mice were determined again (T0). […] Pyretic animals received P. perfoliatus extract (200, 400, and 600 mg/kg, orally), paracetamol (150 mg/kg), or vehicle. Rectal temperatures were measured at 30 min, 1, 2, 3 and 24 h following the different treatments.

Assay [3] relates to carrageenan-induced leukocyte migration in mice. Particulars: cited from earlier work.
In assay [4] the test system is carrageenan-induced paw edema in rats. Particulars: 20 mg/kg, compared to the control group; cited from earlier work.
For assay [5], the system named is acetic acid-induced writhing in mice. Nature of the assay: Acetic acid-induced abdominal writhing. Particulars: 20 mg/kg, p.o.
Protocol: The peripheral analgesic activity of the extract was evaluated by the acetic acid-induced writhing model in mice according to Sobeh et al. [3]. […] The number of writhes, manifested as extension of hind legs, constriction of abdomen, or turning of trunk was evaluated within 25 min. The reduction in the number of writhes as compared to the control group is indicative of the analgesic potential of the extract [3]. The percent inhibition of writhing was calculated using the following formula as previously reported [18]. % Analgesic activity = (mean writhing count (control-treatment)/mean writhing count (control)).
The data results were quantified at one-hour intervals after administration of either the extract (200 and 400 mg/kg, p.o.) or nalbuphine (10 mg/kg, p.o.).
Assay [6] deals with acetic acid-induced vascular permeability in mice. The experiment in a line: Acetic acid-induced vascular permeability (Evans blue). The assay is classed as in vivo, mouse. The note with it: 20 mg/kg, p.o., compared to control mice. The method, then:
To study the effect of the extract on the vascular phase of inflammation, acetic acid-induced vascular permeability was performed as described previously by Sobeh et al.. […] One hour later, Evans blue (0.25% solution in normal saline, 0.2 mL) was injected in the tail vein. Acetic acid (0.6% in normal saline, 1 mL/100 g) was then injected after 30 min in the peritoneal cavity of the treated mice. The normal control was injected with normal saline only. Mice were euthanized 30 min later by cervical dislocation, the abdominal cavities were washed with 3 mL saline solution and the collected washings were then centrifuged at 3000 rpm for 10 min. The vascular permeability is proportional to the absorbance of Evans blue dye in the supernatant, which was measured at 610 nm using a plate reader (Biotek, Winooski, VT, USA).
Figure 3 (A) Results from P. perfoliatus extract on carrageenan-induced leukocyte migration into the peritoneal cavity in mice (total number × 10^6). […] (B) Results from P. perfoliatus extract on acetic acid-induced vascular permeability. Mice received different treatments 1 h before acetic acid (0.6%, i.p.) and Evans blue dye injections. The amount of dye extravasation into the abdominal cavity was quantified and used as an indicator of inflammation degree. […]

For assay [7], the target named is 5-lipoxygenase (LOX). Nature of the assay: Lipoxygenase inhibition, enzyme immunoassay kit. The assay is classed as biochemical. Particulars: mean ± SE. The method, then: The in vitro enzymatic activities were determined, utilizing enzyme immunoassay kits (Cayman Chemical, Ann Arbor, MI, USA) following the manufacturer’s instructions and the study by Adellall et al..

Assay [8] has as its system carrageenan-induced leukocyte migration in mice. Nature of the assay: Carrageenan-induced leukocyte migration into the peritoneal cavity. Particulars: 20 mg/kg, p.o. The assay is classed as in vivo, mouse. Here is the method: Three hours later, the mice were euthanized, and each peritoneal cavity was washed with 3 mL of phosphate-buffered saline (PBS) containing 1 mM EDTA. The total leukocyte count was determined in each peritoneal cavity wash using a hemocytometer and presented as number of cells/mL [3].
Figure 3 (A) Results from P. perfoliatus extract on carrageenan-induced leukocyte migration into the peritoneal cavity in mice (total number × 10^6). […] (B) Results from P. perfoliatus extract on acetic acid-induced vascular permeability. Mice received different treatments 1 h before acetic acid (0.6%, i.p.) and Evans blue dye injections. The amount of dye extravasation into the abdominal cavity was quantified and used as an indicator of inflammation degree. The results are shown as means ± SEM (n = 5–6). * p < 0.05 compared to saline group. ^# p < 0.05 compared to control (carrageenan or acetic acid only treated group).

The nature of assay [9]: Total antioxidant capacity (TAC) ELISA kit assay. The note with it: mean ± SE. Here is the method:
The antioxidant potential of the extract was evaluated by determining its TAC using a TAC ELISA kit (MBS726896, my BioSource, Inc., San Diego, CA, USA) in accordance with the manufacturer’s instructions and compared to the standard antioxidant, ascorbic acid as previously described Sobeh et al..

Turning to `Oc1ccc2c3c1O[C@H]1[C@@H](O)CC[C@@]4(O)[C@@H](C2)N(CC2CCC2)CC[C@]314` [nalbuphine], in assay [1], the “increase in AUC of thermal response latency vs control” value is given as 154.7%.

Regarding `CC(=O)Nc1ccc(O)cc1` [Paracetamol], the “Rectal Temperature Recorded Following Different Treatments” value in assay [2] (0.5 h) came out at 38.14 ± 0.19 °C; in assay [2] (1 h), 37.50 ± 0.31 °C; in assay [2] (2 h) it was 37.12 ± 0.29 °C; in [2] (3 h), 36.96 ± 0.24 °C; in [2] (24 h), 36.50 ± 0.22 °C. The “Rectal Temperature” value in [2] (18 h after yeast injection (T0, before treatment)) came out at 38.60 ± 0.18 °C.

On to `O=C(/C=C/c1ccc(O)c(O)c1)O[C@@H]1C[C@](O)(C(=O)O)C[C@@H](O)[C@H]1O` [chlorogenic acid], for which, in assay [3], the “effect on leukocyte migration” value is reported as “inhibited leukocyte migration”.

In the case of `O=C(O)c1ccc(O)cc1` [p-Hydroxybenzoic acid], in assay [4], the “effect on edema thickness” value is “significantly decreased the edema thickness”.

For the molecule `O=C(O)Cc1ccccc1Nc1c(Cl)cccc1Cl` [Diclofenac], the “reduction of the control writhes” value in assay [5] amounted to 67%. Also, the “inhibition of vascular permeability” value in [6] is given as 67%. For the same molecule, the “LOX IC50” value in [7] was 2.83 ± 0.07 mg/L. Also, in assay [8], the “decrease of the number of leukocytes” value came out at 42%.

Molecule `O=C1O[C@H]([C@@H](O)CO)C(O)=C1O` [Ascorbic acid] registered a TAC in assay [9] of 28.27 ± 1.83 U/L.

For the molecule `O=C(O)/C=C/c1ccc(O)c(O)c1` [caffeic acid], in [3], the “effect on leukocyte migration” value is reported as “inhibited leukocyte migration”.
